Assay results: patent publication US9439430B2, “Method of controlling resistant harmful plants” (priority 2012, dated 2016)

Key:
APESV = test: Greenhouse test, post-emergence (PO) application, foliar effect; type: in vivo, Apera spica-venti; conditions: (A) 50, (B) 20, mixture 50 + 20 g of AS/ha, 3 weeks after application
Excerpt: (§1) The 1:1 mixture of the two soil types was used specifically for cultivating small-seeded dicotyledonous weed since the standard field soil on its own tends to silt up, which may have an adverse effect on the emergence of small-seeded weeds. The resistances mentioned in the tables were confirmed beforehand in standard monitoring experiments. Nevertheless, the origins examined may have additional, hitherto unconfirmed resistances to various mechanisms of action.
(§2) The pots were then cultivated in a greenhouse (12-16 h light, temperature day 20-22° C., night 15-18° C.) until the time of application. The pots were treated at various BBCH stages of the seeds/plants on a laboratory track sprayer with spray liquors comprising the compositions according to the invention, mixtures of the prior art or the individual components. Application of the active compounds or active compound combinations and wetting agents formulated as WG, WP, EC or otherwise was carried out at the appropriate growth stages of the plants. The amount of water used for spray application was 100-600 l/ha. After the treatment, the plants were returned to the greenhouses and fertilized and watered as required. The pots were cultivated in a greenhouse (12-16 h light, temperature day 20-22° C., night 15-18° C.).
(§3) 3 weeks after the application, the foliar effect was evaluated on a scale of 0-100%:
(§4) 0%=no noticeable effect compared to untreated plants
(§5) 100%=full effect compared to untreated plants
(§6) The following abbreviations were used: • BBCH the BBCH code provides information about the morphological development stage of a plant. Officially, the abbreviation denotes the Biologische Bundesanstalt, Bundessortenamt and CHemische Industrie [Federal Biological Institute for Agriculture and Forestry, Federal Office for Crop Plant Varieties, Chemical Industry]. The range of BBCH 00-10 denotes the germination stages of the seeds until surface penetration. The range of BBCH 11-25 denotes the leaf development stages until stocking (corresponds to the number of tillers or side-shoots). • PE pre-emergence soil application; BBCH of the seeds/plants 00-10 • PO post-emergence application on the green parts of the plants; BBCH of the plants 11-25 • IU soil loamy silt—standard field soil • l/ha liters per hectare • S sensitive—the weed populations are sensitive to the active compounds tested • TSR target-site resistance. The weed populations comprise biotypes having a site-of-action-specific resistance, i.e. the binding site at the site of action is modified as a result of natural mutations in the gene sequence so that the active compounds are no longer able to bind, or bind in an unsatisfactory manner, and are therefore no longer able to act. • NTR non-target-site herbicide resistance; this is differentiated, inter alia, into EMR (Enhanced Metabolic Resistance) (the weed populations comprise biotypes having metabolic resistance, i.e. the plants are capable of metabolizing the active compounds more quickly via enzyme complexes, i.e. the active compounds are degraded more quickly in the plant), into reduced penetration into the plant, reduced translocation in the plant, accelerated excretion. […]

ALOMY [1] = test: as above; type: in vivo, Alopecurus myosuroides; conditions: ALOMY sensitive, (A) 50, (B) 20, mixture 50 + 20 g of AS/ha, 3 weeks after application
Excerpt: as §1, §2, §3, §4, §5, §6

LOLSS = test: as above; type: in vivo, Lolium spp.; conditions: (A) 50, (B) 20, mixture 50 + 20 g of AS/ha, 3 weeks after application
Excerpt: as §1, §2, §3, §4, §5, §6

CHEAL [2] = test: as above; type: in vivo, Chenopodium album; conditions: (A) 50, (B) 20, mixture 50 + 20 g of AS/ha, 3 weeks after application
Excerpt: as §1, §2, §3, §4, §5, §6

ERIBO = test: as above; type: in vivo, Erigeron bonariensis; conditions: (A) 50, (B) 20, mixture 50 + 20 g of AS/ha, 3 weeks after application
Excerpt: as §1, §2, §3, §4, §5, §6

KCHSC = test: Greenhouse test, pre-emergence (PE) soil application; type: in vivo, Kochia scoparia; set-up: key: % effect: 0 = no effect, 100 = full effect vs untreated
Excerpt: as §1, §2, §3, §4, §5, §6

BIDSU = test: as above; type: in vivo, Bidens subalternans
Excerpt: as §1, §2, §3, §4, §5, §6

ALOMY [3] = test: as above; type: in vivo, Alopecurus myosuroides
Excerpt: as §1, §2, §3, §4, §5, §6

CHEAL [4] = test: as above; type: in vivo, Chenopodium album; set-up: key: % effect: 0 = no effect, 100 = full effect vs untreated
Excerpt: as §1, §2, §3, §4, §5, §6

ERICA = test: as above; type: in vivo, Erigeron canadensis; set-up: key: % effect: 0 = no effect, 100 = full effect vs untreated
Excerpt: as §1, §2, §3, §4, §5, §6

[5] = APESV resistant - group B (TSR, NTR) and K1/3 (NA)
[6] = LOLSS resistant - group G (NTR)
[7] = LOLSS resistant group A (TSR, NTR), B (NTR) and C2 (NA)
[8] = LOLSS resistant group A (TSR, NTR), B (TSR, NTR) and C2 (NA)
[9] = CHEAL resistant - group B (TSR), C1 (NA) and G (NTR)
[10] = ERIBO resistant - group B (NA) and G (NTR)
[11] = group (B) compound alone, 20 g of AS/ha

Compound	foliar effect (APESV; [5])	foliar effect (APESV; APESV sensitive)	foliar effect (ALOMY [1])	foliar effect (LOLSS; [6])	foliar effect (LOLSS; [7])	foliar effect (LOLSS; [8])	foliar effect (LOLSS; LOLSS sensitive)	foliar effect (CHEAL [2]; [9])	foliar effect (CHEAL [2]; CHEAL sensitive)	foliar effect (ERIBO; [10])	foliar effect (ERIBO; ERIBO sensitive)	effect on KCHSC resistant - group B (TSR) (KCHSC; [11])	effect on KCHSC sensitive (KCHSC; [11])	effect on BIDSU sensitive (BIDSU; [11])	effect on ALOMY sensitive (ALOMY [3]; [11])	effect on CHEAL resistant - group B (TSR), C1 (NA) and G (NTR) (CHEAL [4]; [11])	effect on CHEAL sensitive (CHEAL [4]; [11])	effect on ERICA resistant - group B (NA) and G (NTR) (ERICA; [11])	effect on ERICA sensitive (ERICA; [11])	further results
COC(=O)c1csc(C)c1S(=O)(=O)NC(=O)n1nc(OC)n(C)c1=O [(B5), thiencarbazone-methyl]	0%	100%	100%	40%	50%	0%	85%	70%	70%	60%	70%	0	85	75	100	60	90	0	60	–
COc1cc(OC)nc(NC(=O)NS(=O)(=O)c2cc(NC=O)ccc2C(=O)N(C)C)n1 [(B2), foramsulfuron]	0%	100%	100%	50%	60%	40%	100%	70%	70%	40%	50%	0	60	30	90	40	80	0	100	–
COc1cc(OC)nc(NC(=O)NS(=O)(=O)c2ncccc2C(F)(F)F)n1 [(B1), flazasulfuron]	30%	100%	100%	60%	60%	30%	95%	70%	80%	50%	90%	0	70	80	100	60	88	0	70	–
CCOC(=O)c1ccccc1S(=O)(=O)NC(=O)Nc1nc(Cl)cc(OC)n1 [(B4), chlorimuron-ethyl]	0%	100%	100%	50%	55%	0%	35%	50%	60%	60%	80%	0	50	90	100	60	90	0	100	–
CCS(=O)(=O)c1cccnc1S(=O)(=O)NC(=O)Nc1nc(OC)cc(OC)n1 [(B3), rimsulfuron]	20%	100%	100%	60%	60%	15%	95%	70%	80%	60%	90%	20	80	80	100	45	85	0	70	–
Cc1ccc2c(c1)[C@H](Nc1nc(N)nc(C(C)F)n1)[C@@H](C)C2 (stereo partly drawn) [(A), indaziflam]	60%	65%	75%	65%	60%	60%	75%	70%	70%	50%	50%	–	–	–	–	–	–	–	–	effect on KCHSC resistant - group B (TSR) (KCHSC; (A) alone, 12.5 g of AS/ha): 40; effect on KCHSC sensitive (KCHSC; (A) alone, 12.5 g of AS/ha): 40; effect on BIDSU sensitive (BIDSU; (A) alone, 12.5 g of AS/ha): 50; effect on ALOMY sensitive (ALOMY [3]; (A) alone, 12.5 g of AS/ha): 85; effect on CHEAL resistant - group B (TSR), C1 (NA) and G (NTR) (CHEAL [4]; (A) alone, 12.5 g of AS/ha): 65; effect on CHEAL sensitive (CHEAL [4]; (A) alone, 12.5 g of AS/ha): 70; effect on ERICA resistant - group B (NA) and G (NTR) (ERICA; (A) alone, 12.5 g of AS/ha): 60; effect on ERICA sensitive (ERICA; (A) alone, 12.5 g of AS/ha): 70
